From patent publication US20250320245A1, “Nucleoside Analogues for the Treatment of Parasitic Infections” (Universiteit Antwerpen, priority 2021, published 2025)
Where two headings read alike, the source gives them in different places.

Columns and labels:
[1] = In vitro metabolic stability, mouse liver S9; format: in vitro ADME; conditions: for metabolic stability in mouse liver microsomes: mouse liver S9, phase-I, without 1-ABT; for effect of 1-aminobenzotriazole (1-ABT) on phase-I metabolic decay: mouse microsome pre-incubated with 1-ABT
Description: The metabolic stability of selected compounds was determined in the presence of mice, horse, and bovine liver microsome fractions (S9) through phase-I (CYP450 and NADPH dependent enzymes) and Phase-II (UGT enzymes) metabolisms. Samples were collected after 0, 15, 30, and 60 minutes of incubation and the corresponding loss of parent compound was determined via liquid chromatography (UPLC) (Waters Aquity™) coupled with tandem quadrupole mass spectrometry (MS^2) (Waters Xevo™), equipped with an electrospray ionization (ESI) interface and operated in multiple reaction monitoring (MRM) mode.

[2] = Cytotoxicity assay on MRC-5 fibroblasts; format: cell-based; conditions: human; for CC50 at 3 day: MRC-5SV2 embryonic lung fibroblasts, Table 1, mean and SEM of two independent experiments, highest concentration 64 μM, read-out: MRC-5 off-target cytotoxicity (CC50); for IC50 at 3 day: MRC-5SV2 human embryonic lung fibroblasts, Table 2, two independent repeat experiments
Description: MRC-5SV2 (Sigma-Aldrich/ECACC, catalogue number 84100401) human embryonic lung fibroblasts were used to perform cytotoxicity assays. The cells were cultured in minimum essential medium (MEM, Life Technologies) with Earle's salt medium, supplemented with L-glutamine, NaHCO3 and 5% inactivated fetal bovine serum (iFBS). Cells were seeded at 1.5×10^4 cells/well and 4-fold compound dilutions were immediately added with a highest in-test concentration of 64 μM. After a 3-day incubation, resazurin (Sigma-Aldrich) was added to each well (final concentration of 10 μg mL^−1), and cell viability was assessed by fluorescent reading (Tecan®, GENios) following 4 h of incubation with resazurin (37° C./5% CO2). The results were expressed as percentage reduction in cell growth/viability compared to control wells and the 50% cytotoxic concentration (CC50) was calculated for each of the compounds.

T. brucei (Squib 427) = assay: In vitro drug susceptibility assay, T. brucei; format: cell-based; conditions: Trypanosoma brucei
Description: (§1) Drug susceptibility assays with T. brucei (Squib 427), T. evansi type A (RoTat 1.2) and T. equiperdum (BoTat 1.1) were performed under similar conditions. Parasites were cultured in HMI-9 culture medium supplemented with 10% iFBS. To determine in vitro susceptibility of the abovementioned Trypanosoma species, 10 concentrations of a 4-fold dilution series (with a highest in-test concentration of 64 μM) was prepared for each compound, and parasites were seeded at 1.5×10^4 parasite/well. After 72 h of drug exposure at 37° C. with 5% CO2, resazurin was added to the wells (final concentration of 10 μg mL^−1), followed by another incubation for 24 h. Cell viability was determined by fluorescence reading (Tecan®, GENios) and 50% inhibitory concentration (IC50) was calculated for each compound.

T. vivax (ILRAD700) = assay: Ex vivo drug susceptibility assay, T. vivax; format: cell-based; conditions: Trypanosoma vivax
Text: (§2) T. congolense (IL3000), the isometamidium (ISM)-resistant T. congolense strain (MSORO M7H), T. evansi type A (RoTat 1.2), T. evansi type B (KETRI 2479) and T. equiperdum (BoTat 1.1) used for in vitro, ex vivo and in vivo experiments were kindly provided by the Institute of Tropical Medicine (ITM), and T. vivax (ILRAD700) and T. congolense (TC13) used for ex vivo and in vivo experiments, were kindly provided by the University of Brussel (VUB).
(§3) Ex Vivo Drug Susceptibility Assays for T. vivax, T. congolense ISM-Resistant, and T. evansi Type B
(§4) For Trypanosoma species/strains that were not adapted to culture conditions, donor mice were infected intraperitoneally with 10^4 parasites. Around day 5-6 post infection, blood was collected via cardiac puncture and parasites were isolated using mini-anion exchange centrifugation technique (mAECT). 4-fold dilutions of the test compounds were prepared with the highest concentration of 64 μM, and parasites were seeded at 1×10^5 parasite/well. Following 24 h of drug exposure at 37° C. and 5% CO2, resazurin was added to the wells and plates were incubated (37° C./5% CO2) for another 24 h. Cell viability was determined by fluorescence reading (Tecan®, GENios), and IC50 values were calculated by non-linear regression (dose-response curve with variable slope) using Prism 8.0 (GraphPad Software Inc., San Diego, CA, USA).

[3] = test system: isometamidium (ISM)-resistant T. congolense strain (MSORO M7H); assay: Ex vivo drug susceptibility assay, T. congolense ISM-resistant; format: cell-based; conditions: Trypanosoma congolense; Table 2; two independent repeat experiments; read-out: IC50 T. congolense ISM-R
Text: as §2, §3, §4

[4] = test system: T. evansi type A (RoTat 1.2); assay: In vitro drug susceptibility assay, T. evansi type A; format: cell-based; conditions: Table 2; two independent repeat experiments; read-out: IC50 T. evansi (type A)
Description: as §1

[5] = test system: T. equiperdum (BoTat 1.1); assay: In vitro drug susceptibility assay, T. equiperdum; format: cell-based; conditions: Trypanosoma equiperdum; Table 2; two independent repeat experiments
Description: as §1

[6] = test system: T. evansi type B (KETRI 2479); assay: Ex vivo drug susceptibility assay, T. evansi type B; format: cell-based; conditions: Table 2; two independent repeat experiments
Text: as §2, §3, §4

T. congolense (IL3000) = assay: In vitro drug susceptibility assay, T. congolense; format: cell-based; conditions: Trypanosoma congolense; Table 2; two independent repeat experiments
Description: Drug susceptibility assays for T. congolense (IL3000) were performed with parasites cultured in HMI-9 medium supplemented with 15% horse serum. Parasites were seeded at a concentration of 1.5×10^4 parasite/well and exposed to a 4-fold compound dilution series starting at a highest in-test concentration of 64 μM. Plates were incubated for 72 h at 34° C. and 5% CO2, followed by the addition of resazurin (Sigma, Aldrich) and a further incubation period of 24 h. Cell viability was quantified by fluorescence reading (Tecan®, GENios), and IC50 values were calculated by non-linear regression (dose-response curve with variable slope) using Prism 8.0 (GraphPad Software Inc., San Diego, CA, USA).

[7] = test system: T. B. brucei AnTAR1.1 PPYRE9; assay: Bioluminescent T. brucei late curative mouse model; format: in vivo, female Swiss mice; conditions: single-dose i.p. 50 mg kg−1
Description: Female Swiss mice (BW˜20-24 g; Janvier Labs, France) were randomly allocated to group of 3 animals and were intraperitoneally infected with 2×10^3 T. B. brucei AnTAR1.1 PPYRE9 derived from a heavily infected donor mouse. FH15967 was formulated in 10% (v/v) polyethylene glycol 400 (PEG400) in water at 2 mg mL^−1 and was administrated to separate groups as single dose s.i.d. i.p. at 50 mg kg-1 (n=3), and b.i.d i.p. at 50 mg kg^−1 (n=3). The reference drug diminazene aceturate was formulated in PBS at 2.5 mg mL^−1 and administrated s.i.d i.p. as a single dose at 10 mg kg^−1. Treatment was initiated at 3 dpi when parasitemia reached 10^6 parasites mL^−1, and parasitemia was microscopically determined via Neubaur improved haemocytometer on a daily basis until 7 dpi. Bioluminescent images were obtained at 3, 5 and 7 dpi to determine parasite burdens in the body. Accordingly, D-luciferin was injected i.p. at 15 mg kg^−1, animals were anaesthetised using isoflurane, and luminescent signals were acquired from both the dorsal and ventral sides of the animals. […] BLI images that obtained from IVIS Spectrum In vivo Imaging System (Perkin Elmer) were quantified with Living Image V4.3.1 SoftWoRx Suite 2.0 for microscopy, then processing using the Fiji software.

[8] = Table 1, mean and SEM of two independent experiments, read-out: T. brucei in vitro activity (IC50)
[9] = Table 2, two independent repeat experiments, read-out: IC50 T. brucei
[10] = Table 1, mean and SEM of two independent experiments, read-out: T. vivax in vitro activity (IC50)
[11] = Table 2, two independent repeat experiments, read-out: IC50 T. vivax

metabolic stability in mouse liver microsomes [1]	effect of 1-aminobenzotriazole (1-ABT) on phase-I metabolic decay [1]	IC50 (T. brucei (Squib 427); [8]) [nM]	IC50 (T. brucei (Squib 427); [9]) [nM]	IC50 (T. vivax (ILRAD700); [10]) [nM]	IC50 (T. vivax (ILRAD700); [11]) [nM]	IC50 [4] [nM]	IC50 [5] [nM]	IC50 [6] [nM]	IC50 (T. congolense (IL3000)) [nM]	Compound	CC50 at 3 day [2] [nM]	IC50 at 3 day [2] [nM]	IC50 [3] [nM]	parasitemia decline by bioluminescent imaging and signal quantification ([7]; even faster than the diminazene aceturate reference group)	blood parasitemia ([7]; until day 7 post infection)
phase-I metabolic degradation	adequately block phase-I metabolic decay	440 ± 1	490 ± 100	5 ± 10	4 ± 2	760 ± 30	40 ± 0.2	16 ± 3	43 ± 8	CSc1ncnc2c1ccn2[C@@H]1O[C@H](CO)[C@@H](O)[C@H]1O [FH15961/CL5565]	> 64000	> 64000	430 ± 20		
phase-I metabolic degradation	adequately block phase-I metabolic decay	34 ± 1	34 ± 1	34 ± 4	34 ± 4	100 ± 5	25 ± 4	14 ± 4	180 ± 8	C=CCSc1ncnc2c1ccn2[C@@H]1O[C@H](CO)[C@@H](O)[C@H]1O [FH15963, 4-S-allyl-N7-(β-D-ribofuranosyl)pyrrolo[2,3-d]pyrimidine]	> 64000	> 64000	140 ± 50		

Compound	metabolic stability in mouse liver microsomes [1]	effect of 1-aminobenzotriazole (1-ABT) on phase-I metabolic decay [1]	IC50 (T. brucei (Squib 427); [8]) [nM]	IC50 (T. brucei (Squib 427); [9]) [nM]	IC50 (T. vivax (ILRAD700); [10]) [nM]	IC50 (T. vivax (ILRAD700); [11]) [nM]	IC50 [4] [nM]	IC50 [5] [nM]	IC50 [6] [nM]	IC50 (T. congolense (IL3000)) [nM]	CC50 at 3 day [2] [nM]	IC50 at 3 day [2] [nM]	IC50 [3] [nM]	parasitemia decline by bioluminescent imaging and signal quantification ([7]; even faster than the diminazene aceturate reference group)	blood parasitemia ([7]; until day 7 post infection)
OC[C@H]1O[C@@H](n2ccc3c(Sc4ccccc4)ncnc32)[C@H](O)[C@@H]1O [FH15967, 4-S-phenyl-N7-(β-D-ribofuranosyl)pyrrolo[2,3-d]pyrimidine]	phase-I metabolic degradation	adequately block phase-I metabolic decay	31 ± 8	31 ± 8	44 ± 5	44 ± 5	33 ± 6	26 ± 5	18 ± 6	100 ± 20	> 64000	> 64000	180 ± 9	rapid parasitemia decline	negative blood parasitemia
